A short description of series [1]: Molar enthalpy of transition or fusion. As to conditions: Crystal; DSC.
For series [2] the following is noted: Crystal; DTA.

± gives the expanded uncertainty stated by the source.

Turning to `NNC(=O)c1ccncc1` [isonicotinic acid hydrazide], in series [1], the “Molar enthalpy of transition or fusion” value stood at 6.67 ± 0.191 kcal/mol. Moreover, the Normal melting temperature in series [2] came out at 172.69 ± 1.1 °C.

The values above are taken from the NIST ThermoML archive (doi:10.1016/j.fluid.2012.01.022).
